Reference: patent US20040232089A1, “Biocidal compounds for treating water” (VANETTA S.p.A., priority 2003, published 2004)

Legend:
[1] = test system: Micrococcus sp. AE11; test: Microdilution broth MIC/MBC; type: cell-based; conditions: 24 h at 25° C., dark
Experimental: (§1) b) Serial dilution test: the antibiotic activity is determined quantitatively by using the known sensitivity of a test strain towards an antibiotic which is expressed numerically as the minimal inhibitory concentration (MIC) and the minimal bactericidal concentration (MBC).
(§2) Procedure: serial dilutions of the antibiotic to be tested are pipetted into the antibiotic broth, this is then inoculated with a defined quantity of the relevant test strain (FIG. 4).
(§3) The Minimum Inhibitory Concentration (MIC) was defined as the lowest concentration of antibiotic which prevented visual turbidity after incubation.
(§4) The Minimum Bactericidal Concentration (MBC) is defined as the lowest concentration of an antibiotic killing the majority of a bacterial inoculum (99.9%, equivalent to a thousand-fold reduction of the inoculum). Method: Following a broth dilution MIC test, from each tube in the dilution series a defined volume (20 μL) is spread onto plates without antibiotics. To minimize the carry-over effect of antibiotic from the test tubes, let the drop “dry” before the inoculum is spread over the surface (a section of the agar plate). The plates were incubate overnight (longer for slow growing bacteria) and then counted the number of colonies growing from each of the test tubes. The number of colonies corresponding to a thousand-fold reduction (MBC) can be calculated if the colony count of the start inoculum is known.
(§5) The microdilution broth method was used to evaluate the MIC and the MBC against 15 aerobic bacteria isolated from culture collection and seawater. Antimicrobial dilutions were performed using Mueller Hinton Broth supplemented with divalent cations. The tested product was dissolved in the medium to obtain a final range concentration between 0,12 to 64 mg/l.
(§6) Antimicrobial assays were performed in dark, and results were read after 24 h of incubation at 25° C. Each test towards the same indicator strain was performed in three replicates.
(§7) The assayed strains were environment isolates identified by an internal number or standard strains identified by the ATCC or NCIMB accession number.

[2] = test system: Pseudomonas putida NCIMB 1960; test: Microdilution broth MIC/MBC; type: cell-based; conditions: 24 h at 25° C., dark
Experimental: as §1, §2, §3, §4, §5, §6, §7

[3] = test system: Bacillus licheniformis NCIMB 1525; test: Microdilution broth MIC/MBC; type: cell-based; conditions: 24 h at 25° C., dark
Experimental: as §1, §2, §3, §4, §5, §6, §7

[4] = test system: Bacillus subtilis ATCC 10774; test: Microdilution broth MIC/MBC; type: cell-based; conditions: 24 h at 25° C., dark
Experimental: as §1, §2, §3, §4, §5, §6, §7

[5] = test system: Vibrio parahaemolyticus AD19; test: Microdilution broth MIC/MBC; type: cell-based; conditions: 24 h at 25° C., dark
Experimental: as §1, §2, §3, §4, §5, §6, §7

[6] = test system: Pseudomonas elongata NCIMB 1141; test: Microdilution broth MIC/MBC; type: cell-based; conditions: 24 h at 25° C., dark
Experimental: as §1, §2, §3, §4, §5, §6, §7

[7] = test system: Micrococcus sp. AD10; test: Microdilution broth MIC/MBC; type: cell-based; conditions: 24 h at 25° C., dark
Experimental: as §1, §2, §3, §4, §5, §6, §7

[8] = test system: Escherichia coli ATCC 25922; test: Microdilution broth MIC/MBC; type: cell-based; conditions: 24 h at 25° C., dark
Experimental: as §1, §2, §3, §4, §5, §6, §7

[9] = test system: Vibrio sp. AD18; test: Microdilution broth MIC/MBC; type: cell-based; conditions: 24 h at 25° C., dark
Experimental: as §1, §2, §3, §4, §5, §6, §7

[10] = test system: Vibrio sp. CH45; test: Microdilution broth MIC/MBC; type: cell-based; conditions: 24 h at 25° C., dark
Experimental: as §1, §2, §3, §4, §5, §6, §7

[11] = test system: Aeromonas sp. CH34; test: Microdilution broth MIC/MBC; type: cell-based; conditions: 24 h at 25° C., dark
Experimental: as §1, §2, §3, §4, §5, §6, §7

[12] = test system: Corynebacterium sp. CT15; test: Microdilution broth MIC/MBC; type: cell-based; conditions: 24 h at 25° C., dark
Experimental: as §1, §2, §3, §4, §5, §6, §7

[13] = test system: Pseudomonas aeruginosa ATCC 10145; test: Microdilution broth MIC/MBC; type: cell-based; conditions: 24 h at 25° C., dark
Experimental: as §1, §2, §3, §4, §5, §6, §7

[14] = test system: Vibrio sp. AE7; test: Microdilution broth MIC/MBC; type: cell-based; conditions: 24 h at 25° C., dark
Experimental: as §1, §2, §3, §4, §5, §6, §7

[15] = test system: cysts (resting stage) of Scrippsiella trochoidea; test: Inhibition of dynoflagellates cysts hatching; type: cell-based; conditions: after 6 days
Excerpt: For this test, cysts (resting stage) of Scrippsiella trochoidea (Dinophyta) were used. Scrippsiella trochoidea (order Peridiniales, subfamily Calciodinelloideae) i.e. a non-toxic autotrophic orthoperidinioid dinoflagellate producing calcareous resting cysts which are abundant in coastal marine sediments. The maturation period for S. trochoidea cysts rang between 2 and 5 weeks.
S. trochoidea cysts are very convenient for experimental purposes because their sorting and culturing is comparatively easy, the cysts being relatively abundant in sediments.
Sediments were sampled in Mar Piccolo (Taranto). The utilized method allowed us to pick up the superficial sediment layer of a certain area entirely, where most of the cysts is present. The sample was immediately kept at dark at 4° C. Sediments collected about one year ago were utilized, in order to be sure that the hatching refractoriness period of cysts was finished. The sample (about 2 ml of sediment) was then dissolved in 0,45 μm filtered natural sea-water, sonified for 1 minute (Branson Sonifier) in order to brake sediment clots, resuspended in filtered sea-water and filtered on a Endecotts sieve, with a 20 μm steel mesh. […]

[16] = test system: Staphylococcu aureus ATCC 25923; test: Microdilution broth MIC/MBC; type: cell-based, Staphylococcus aureus; conditions: 24 h at 25° C., dark
Experimental: as §1, §2, §3
The Minimum Bactericidal Concentration (MBC) is defined as the lowest concentration of an antibiotic killing the majority of a bacterial inoculum (99.9%, equivalent to a thousand-fold reduction of the inoculum). Method: Following a broth dilution MIC test, from each tube in the dilution series a defined volume (20 μL) is spread onto plates without antibiotics. […] The plates were incubate overnight (longer for slow growing bacteria) and then counted the number of colonies growing from each of the test tubes. The number of colonies corresponding to a thousand-fold reduction (MBC) can be calculated if the colony count of the start inoculum is known. […]
Antimicrobial assays were performed in dark, and results were read after 24 h of incubation at 25° C. […]

[17] = Hydrolysis test carried out in the dark; type: physicochemical
Excerpt: From the hydrolysis test carried out in the dark, MNB and MPB appear to be readily degradable at a pH compatible with environmental conditions.

[18] = Biodegradability OECD 301 A (92/69/EEC C4-A); conditions: 7 days after the beginning of the test
Experimental: In fact, based on data available with respect to the most similar compounds to the menadione derivatives disclosed herein, one would expect a degradability in the range of 0% (percentage calculated based on the initial mass expressed in mg/l) typical of menadione (2-methyl-1,4-naphthalenedione) and 17% (assessed after 28 days) typical of menadione sodium bisulphite (which calculation was performed in accordance with the guidelines OECD301 A attached to directive EEC 92/69/EEC C4-A).
Finally biodegradability was also evaluated according to standard 92/69/EEC C4-A. From the data, both MNB and MPB result to have a remarkably better biodegradability than 2-methyl-1,4-naphthalenedione and particularly than MSB.

Structure (SMILES): CC1(S(=O)(=O)O)CC(=O)c2ccccc2C1=O.NC(=O)c1cccnc1 (stereo not shown) [MNB, menadione nicotinamide bisulphite]
- MBC [1]: 16 µg/mL
- MIC [1]: 8 µg/mL
- MBC [2]: >64 µg/mL
- MIC [2]: >64 µg/mL
- MBC [3]: 32 µg/mL
- MIC [3]: 16 µg/mL
- MBC [4]: 32 µg/mL
- MIC [4]: 12 µg/mL
- MBC [5]: 4 µg/mL
- MIC [5]: 1 µg/mL
- MBC [6]: 16 µg/mL
- MIC [6]: 8 µg/mL
- MBC [7]: 32 µg/mL
- MIC [7]: 16 µg/mL
- MBC [8]: >64 µg/mL
- MIC [8]: >64 µg/mL
- MBC [9]: 32 µg/mL
- MIC [9]: 16 µg/mL
- MBC [10]: 16 µg/mL
- MIC [10]: 16 µg/mL
- MBC [11]: 64 µg/mL
- MIC [11]: 32 µg/mL
- MBC [12]: 16 µg/mL
- MIC [12]: 8 µg/mL
- MBC [13]: >64 µg/mL
- MIC [13]: >64 µg/mL
- MBC [14]: 64 µg/mL
- MIC [14]: 32 µg/mL
- LC50 [15]: 2,65 mg/L
- MBC [16]: 16 µg/mL
- MIC [16]: 8 µg/mL
- ½ LIFE (hydrolysis) ([17]; pH 6, 8, in the dark): 48 h
- ½ LIFE (hydrolysis) ([17]; pH 9, in the dark): <3 h
- degradability relative to that of MSB [18]: eight
